Assay results from patent US11939300B2, “Compounds and methods for treating autoimmune disorders by targeting HLA-DQ2” (ImmunoMolecular Therapeutics, Inc., priority 2020, dated 2024).

Tested on: HLA-DQ2
Experiment: Inhibition of IL-2 secretion by TCR transductants stimulated by α-gliadin peptides presented by HLA-DQ2 expressing K562 cells (ELISA)
Type: cell-based, human
Settings: for DQ2 IL2 Maximal % Inhibition: IL-2 secretion, TCR transductants (α I- or α II-gliadin) + gliadin peptide + HLA-DQ2 K562 cells, at the concentration given in brackets; for concentration at which the compound exhibited maximum % inhibition (DQ2 IL2): from dose-response curve, figure in brackets in the cell
Protocol: Three commercially available analogues of the DQ2 binding molecules of the invention were tested for their ability to inhibit stimulation of T cell receptor (TCR) transductants in the presence of HLA-DQ2 expressing cells presenting known α-gliadin epitopes.
Using a previously published in vitro assay (Ostrov D, et al. Methyldopa blocks MHC class II binding to disease specific antigens in autoimmune diabetes. J Clin Invest. 2018:128(5)) we measured the ability of these DQ2 binding analogues to inhibit interleukin-2 (IL-2) secretion by TCR transductants stimulated by α-gliadin peptides presented by HLA-DQ2. Individual TCR transductants (recognizing α I-gliadin or α II-gliadin) were cultured with a gliadin peptide plus the small molecule analogues in the presence of HLA-DQ2 expressing K562 cells serving as antigen presenting cells. TCR transductants cultured with no gliadin peptide served as the negative control, and incubation with an anti-CD3 antibody (eBioscience; clone 2C11) served as a positive control for the TCR transductant. Secreted IL-2 in the culture supernatant was measured using a highly sensitive enzyme-linked immunosorbent assay (ELISA). […] Assays for effects on cell viability and for specificity, assayed in the absence of gliadin peptide or in the presence of a stimulating anti-CD3 antibody, were performed. A=71-100%; B=41-70%; C=11-40%; D=0-10%, NT=Not tested.

## O=C(NC1CCc2n[nH]c(=O)cc2C1)c1ccccc1 (centres unmarked) [Compound 1]
  DQ2 IL2 Maximal % Inhibition: C (C=11-40%)
  concentration at which the compound exhibited maximum % inhibition (DQ2 IL2): 50 µM

## Cc1ccc(C(=O)NC2CCc3n[nH]c(=O)cc3C2)cc1 (centres unmarked) [Compound 2]
  DQ2 IL2 Maximal % Inhibition: C (C=11-40%)
  concentration at which the compound exhibited maximum % inhibition (DQ2 IL2): 100 µM

## CCCc1ccc(C(=O)NC2CCc3n[nH]c(=O)cc3C2)cc1 (centres unmarked) [Compound 3]
  DQ2 IL2 Maximal % Inhibition: B (B=41-70%)
  concentration at which the compound exhibited maximum % inhibition (DQ2 IL2): 100 µM

## CC(C)c1ccc(C(=O)NC2CCc3n[nH]c(=O)cc3C2)cc1 (centres unmarked) [Compound 4]
  DQ2 IL2 Maximal % Inhibition: A (A=71-100%)
  concentration at which the compound exhibited maximum % inhibition (DQ2 IL2): 200 µM

## CCCCc1ccc(C(=O)NC2CCc3n[nH]c(=O)cc3C2)cc1 (centres unmarked) [Compound 5, 4-n-butyl-N-(3-oxo-5,6,7,8-tetrahydrocinnolin-6-yl)benzamide]
  DQ2 IL2 Maximal % Inhibition: D (D=0-10%)
  concentration at which the compound exhibited maximum % inhibition (DQ2 IL2): 50 µM

## CC(=O)NC1CCc2n[nH]c(=O)cc2C1 (centres unmarked) [Compound 6]
  DQ2 IL2 Maximal % Inhibition: C (C=11-40%)
  concentration at which the compound exhibited maximum % inhibition (DQ2 IL2): 50 µM

## CCC(=O)NC1CCc2n[nH]c(=O)cc2C1 (centres unmarked) [Compound 7]
  DQ2 IL2 Maximal % Inhibition: D (D=0-10%)
  concentration at which the compound exhibited maximum % inhibition (DQ2 IL2): 200 µM

## CCCC(=O)NC1CCc2n[nH]c(=O)cc2C1 (centres unmarked) [Compound 8]
  DQ2 IL2 Maximal % Inhibition: D (D=0-10%)
  concentration at which the compound exhibited maximum % inhibition (DQ2 IL2): 200 µM

## CCCCC(=O)NC1CCc2n[nH]c(=O)cc2C1 (centres unmarked) [Compound 9]
  DQ2 IL2 Maximal % Inhibition: C (C=11-40%)
  concentration at which the compound exhibited maximum % inhibition (DQ2 IL2): 100 µM

## CC(C)(C)C(=O)NC1CCc2n[nH]c(=O)cc2C1 (centres unmarked) [Compound 10]
  DQ2 IL2 Maximal % Inhibition: D (D=0-10%)
  concentration at which the compound exhibited maximum % inhibition (DQ2 IL2): 200 µM

## O=C(NC1CCc2n[nH]c(=O)cc2C1)C1CC1 (centres unmarked) [Compound 11]
  DQ2 IL2 Maximal % Inhibition: D (D=0-10%)
  concentration at which the compound exhibited maximum % inhibition (DQ2 IL2): 200 µM

## O=C(NC1CCc2n[nH]c(=O)cc2C1)C1CCCCC1 (centres unmarked) [Compound 12]
  DQ2 IL2 Maximal % Inhibition: C (C=11-40%)
  concentration at which the compound exhibited maximum % inhibition (DQ2 IL2): 0.1 µM

## CC(C)(C)c1ccc(C(=O)NC2CCc3n[nH]c(=O)cc3C2)cc1 (centres unmarked) [Compound 13]
  DQ2 IL2 Maximal % Inhibition: D (D=0-10%)
  concentration at which the compound exhibited maximum % inhibition (DQ2 IL2): 0.1 µM

## O=C(NC1CCc2n[nH]c(=O)cc2C1)c1ccc(C2CCCCC2)cc1 (centres unmarked) [Compound 14]
  DQ2 IL2 Maximal % Inhibition: B (B=41-70%)
  concentration at which the compound exhibited maximum % inhibition (DQ2 IL2): 200 µM

## CC(C)C(=O)NC1CCc2n[nH]c(=O)cc2C1 (centres unmarked) [Compound 15]
  DQ2 IL2 Maximal % Inhibition: C (C=11-40%)
  concentration at which the compound exhibited maximum % inhibition (DQ2 IL2): 100 µM

## Cn1nc2c(cc1=O)CC(NC(=O)c1ccccc1)CC2 (centres unmarked) [Compound 16, N-(2-methyl-3-oxo-5,6,7,8-tetrahydrocinnolin-6-yl)benzamide]
  DQ2 IL2 Maximal % Inhibition: B (B=41-70%)
  concentration at which the compound exhibited maximum % inhibition (DQ2 IL2): 100 µM

## Cn1nc2c(cc1=O)CC(NC(=O)c1ccc3ccccc3c1)CC2 (centres unmarked) [Compound 17]
  DQ2 IL2 Maximal % Inhibition: A (A=71-100%)
  concentration at which the compound exhibited maximum % inhibition (DQ2 IL2): 100 µM

## CC(=O)NC1CCc2nn(C)c(=O)cc2C1 (centres unmarked) [Compound 18]
  DQ2 IL2 Maximal % Inhibition: C (C=11-40%)
  concentration at which the compound exhibited maximum % inhibition (DQ2 IL2): 100 µM

## Cn1nc2c(cc1=O)CC(NC(=O)C1CCCCC1)CC2 (centres unmarked) [Compound 19]
  DQ2 IL2 Maximal % Inhibition: B (B=41-70%)
  concentration at which the compound exhibited maximum % inhibition (DQ2 IL2): 100 µM

## Cc1ccc(C(=O)NC2CCc3nn(C)c(=O)cc3C2)cc1 (centres unmarked) [Compound 20]
  DQ2 IL2 Maximal % Inhibition: B (B=41-70%)
  concentration at which the compound exhibited maximum % inhibition (DQ2 IL2): 200 µM

## Cn1nc2c(cc1=O)CC(NC(=O)c1ccc(C(F)(F)F)cc1)CC2 (centres unmarked) [Compound 21]
  DQ2 IL2 Maximal % Inhibition: A (A=71-100%)
  concentration at which the compound exhibited maximum % inhibition (DQ2 IL2): 100 µM

## Cn1nc2c(cc1=O)CC(NC(=O)c1cccc3ccccc13)CC2 (centres unmarked) [Compound 22]
  DQ2 IL2 Maximal % Inhibition: C (C=11-40%)
  concentration at which the compound exhibited maximum % inhibition (DQ2 IL2): 200 µM

## CCCC(=O)NC1CCc2nn(C)c(=O)cc2C1 (centres unmarked) [Compound 23]
  DQ2 IL2 Maximal % Inhibition: C (C=11-40%)
  concentration at which the compound exhibited maximum % inhibition (DQ2 IL2): 100 µM

## Cn1nc2c(cc1=O)CC(NC(=O)C(C)(C)C)CC2 (centres unmarked) [Compound 24]
  DQ2 IL2 Maximal % Inhibition: C (C=11-40%)
  concentration at which the compound exhibited maximum % inhibition (DQ2 IL2): 100 µM

## Cn1nc2c(cc1=O)CC(NC(=O)C1CC1)CC2 (centres unmarked) [Compound 25]
  DQ2 IL2 Maximal % Inhibition: C (C=11-40%)
  concentration at which the compound exhibited maximum % inhibition (DQ2 IL2): 200 µM

## O=C(NC1CCc2n[nH]c(=O)cc2C1)c1ccc(F)cc1 (centres unmarked) [Compound 28]
  DQ2 IL2 Maximal % Inhibition: C (C=11-40%)
  concentration at which the compound exhibited maximum % inhibition (DQ2 IL2): 200 µM

## O=C(NC1CCc2n[nH]c(=O)cc2C1)c1ccc(Cl)cc1 (centres unmarked) [Compound 29]
  DQ2 IL2 Maximal % Inhibition: B (B=41-70%)
  concentration at which the compound exhibited maximum % inhibition (DQ2 IL2): 200 µM

## O=C(NC1CCc2n[nH]c(=O)cc2C1)c1ccc(Br)cc1 (centres unmarked) [Compound 30]
  DQ2 IL2 Maximal % Inhibition: C (C=11-40%)
  concentration at which the compound exhibited maximum % inhibition (DQ2 IL2): 200 µM

## O=C(NC1CCc2n[nH]c(=O)cc2C1)c1ccc(I)cc1 (centres unmarked) [Compound 31]
  DQ2 IL2 Maximal % Inhibition: C (C=11-40%)
  concentration at which the compound exhibited maximum % inhibition (DQ2 IL2): 200 µM

## Cn1nc2c(cc1=O)CC(NC(=O)c1ccc(F)cc1)CC2 (centres unmarked) [Compound 32]
  DQ2 IL2 Maximal % Inhibition: C (C=11-40%)
  concentration at which the compound exhibited maximum % inhibition (DQ2 IL2): 200 µM

## Cn1nc2c(cc1=O)CC(NC(=O)c1ccc(Cl)cc1)CC2 (centres unmarked) [Compound 33]
  DQ2 IL2 Maximal % Inhibition: B (B=41-70%)
  concentration at which the compound exhibited maximum % inhibition (DQ2 IL2): 200 µM

## Cn1nc2c(cc1=O)CC(NC(=O)c1ccc(Br)cc1)CC2 (centres unmarked) [Compound 34]
  DQ2 IL2 Maximal % Inhibition: A (A=71-100%)
  concentration at which the compound exhibited maximum % inhibition (DQ2 IL2): 200 µM

## Cn1nc2c(cc1=O)CC(NC(=O)c1ccc(I)cc1)CC2 (centres unmarked) [Compound 35]
  DQ2 IL2 Maximal % Inhibition: B (B=41-70%)
  concentration at which the compound exhibited maximum % inhibition (DQ2 IL2): 200 µM

## CCc1ccc(C(=O)NC2CCc3nn(CC)c(=O)cc3C2)cc1 (centres unmarked) [Compound 36]
  DQ2 IL2 Maximal % Inhibition: B (B=41-70%)
  concentration at which the compound exhibited maximum % inhibition (DQ2 IL2): 200 µM

## CCCn1nc2c(cc1=O)CC(NC(=O)c1ccc(CC)cc1)CC2 (centres unmarked) [Compound 37]
  DQ2 IL2 Maximal % Inhibition: B (B=41-70%)
  concentration at which the compound exhibited maximum % inhibition (DQ2 IL2): 200 µM

## CCc1ccc(C(=O)NC2CCc3nn(CC(N)=O)c(=O)cc3C2)cc1 (centres unmarked) [Compound 38]
  DQ2 IL2 Maximal % Inhibition: A (A=71-100%)
  concentration at which the compound exhibited maximum % inhibition (DQ2 IL2): 200 µM

## CCn1nc2c(cc1=O)CC(NC(=O)c1ccc(C(C)C)cc1)CC2 (centres unmarked) [Compound 40]
  DQ2 IL2 Maximal % Inhibition: B (B=41-70%)
  concentration at which the compound exhibited maximum % inhibition (DQ2 IL2): 200 µM

## CCCn1nc2c(cc1=O)CC(NC(=O)c1ccc(C(C)C)cc1)CC2 (centres unmarked) [Compound 41]
  DQ2 IL2 Maximal % Inhibition: A (A=71-100%)
  concentration at which the compound exhibited maximum % inhibition (DQ2 IL2): 200 µM

## CNC(=O)Cn1nc2c(cc1=O)CC(NC(=O)c1ccc(C(C)C)cc1)CC2 (centres unmarked) [Compound 42]
  DQ2 IL2 Maximal % Inhibition: A (A=71-100%)
  concentration at which the compound exhibited maximum % inhibition (DQ2 IL2): 200 µM

## CC(C)c1ccc(C(=O)NC2CCc3nn(CC(=O)O)c(=O)cc3C2)cc1 (centres unmarked) [Compound 43]
  DQ2 IL2 Maximal % Inhibition: A (A=71-100%)
  concentration at which the compound exhibited maximum % inhibition (DQ2 IL2): 200 µM

## CC(C)c1ccc(C(=O)NC2CCc3nn(C(C)C)c(=O)cc3C2)cc1 (centres unmarked) [Compound 44]
  DQ2 IL2 Maximal % Inhibition: A (A=71-100%)
  concentration at which the compound exhibited maximum % inhibition (DQ2 IL2): 200 µM

## CC(C)c1ccc(C(=O)NC2CCc3nn(CC4CC4)c(=O)cc3C2)cc1 (centres unmarked) [Compound 45]
  DQ2 IL2 Maximal % Inhibition: A (A=71-100%)
  concentration at which the compound exhibited maximum % inhibition (DQ2 IL2): 200 µM

## CCCCn1nc2c(cc1=O)CC(NC(=O)c1ccc(C(C)C)cc1)CC2 (centres unmarked) [Compound 46]
  DQ2 IL2 Maximal % Inhibition: B (B=41-70%)
  concentration at which the compound exhibited maximum % inhibition (DQ2 IL2): 200 µM

## CC(C)c1ccc(C(=O)NC2CCc3nn(CC4CCC4)c(=O)cc3C2)cc1 (centres unmarked) [Compound 48]
  DQ2 IL2 Maximal % Inhibition: A (A=71-100%)
  concentration at which the compound exhibited maximum % inhibition (DQ2 IL2): 100 µM

## CC(C)c1ccc(C(=O)NC2CCc3nn(CC4CCCCC4)c(=O)cc3C2)cc1 (centres unmarked) [Compound 49]
  DQ2 IL2 Maximal % Inhibition: A (A=71-100%)
  concentration at which the compound exhibited maximum % inhibition (DQ2 IL2): 200 µM

## CC(C)c1ccc(C(=O)NC2CCc3nn(Cc4ccccc4)c(=O)cc3C2)cc1 (centres unmarked) [Compound 50]
  DQ2 IL2 Maximal % Inhibition: A (A=71-100%)
  concentration at which the compound exhibited maximum % inhibition (DQ2 IL2): 200 µM

## COCCn1nc2c(cc1=O)CC(NC(=O)c1ccc(C(C)C)cc1)CC2 (centres unmarked) [Compound 51]
  DQ2 IL2 Maximal % Inhibition: B (B=41-70%)
  concentration at which the compound exhibited maximum % inhibition (DQ2 IL2): 200 µM

## CC(C)c1ccc(C(=O)NC2CCc3nn(C4CC4)c(=O)cc3C2)cc1 (centres unmarked) [Compound 53]
  DQ2 IL2 Maximal % Inhibition: A (A=71-100%)
  concentration at which the compound exhibited maximum % inhibition (DQ2 IL2): 200 µM

## CC(C)c1ccc(C(=O)NC2CCc3nn(C4CCCCC4)c(=O)cc3C2)cc1 (centres unmarked) [Compound 54]
  DQ2 IL2 Maximal % Inhibition: A (A=71-100%)
  concentration at which the compound exhibited maximum % inhibition (DQ2 IL2): 200 µM
